From patent publication US20250136722A1, “CYTOTOXICITY TARGETING CHIMERAS” (GLAXOSMITHKLINE INTELLECTUAL PROPERTY DEVELOPMENT LIMITED, priority 2021, published 2025) come the findings set out here.

Each structure is given as a SMILES string. Where “and” joins values, the source holds several entries; their conditions need not be identical. Identical values can stand only once.

For experiment [1], the system named is CCR2 expressing cells (CD11b+Ly6c+ Hi) in peripheral blood. The experiment in a line: In vivo depletion assay, flow cytometry of peripheral blood (Example 201). Particulars: hCCR2 knock-in mice; IV 0.1 mpk compound + 10 mpk anti-cotinine antibody (SEQ ID NO: 13/14); peripheral blood at 48 hr. Also noted: species or system Human CCR2 (hCCR2) knock-in mice (C57 background). As for the experimental part: Stock solution preparation: Stock solutions of compounds of Formula (I) were prepared at 20 mg/mL and 100 mg/mL in DMSO for PK/PD and dose tolerability studies respectively. Stock solutions were stored at −20° C. until further usage.
Formulations preparation: On the day of experiment, the stock solution of the compound of Formula (I) was removed from storage at −20° C. and thawed at room temperature. Anti-cotinine antibody having a heavy chain sequence of SEQ ID NO: 13 and a light chain sequence of SEQ ID NO: 14 (rabbit variable region sequence with mouse IgG2a Fc domain), if required was removed from storage at −80° C. and thawed at room temperature. Antibody vials were immediately transferred into wet ice after thawing. Compounds of Formula (I) were further diluted in DMSO as per experimental requirements.
Formulation composition: The formulation composition was Saline:DMSO:PBS. Saline was added based on the quantity required and then stock solution of the compound of Formula (I) prepared in DMSO, followed by addition of antibody in PBS. Formulations were incubated at room temperature for 30 minutes before administration to the mouse. DMSO was used at 1 to 2% (v/v) in the final formulation.
After bleeding, each mouse was sacrificed by cervical dislocation.
CCR2 depletion in peripheral blood was determined by flow cytometry. Briefly, peripheral blood was collected from all animals at the end of study termination and processed. Blood samples were lysed using 1× RBC Lysis buffer and the resulting cell pellet was washed twice in FACS buffer (HBSS containing 5% FBS). Cells were subjected to Fc blocking using mouse Fc block from Biolegend (Trustain, anti-mouse CD16/32, Cat: 101319) to block non-specific binding followed by surface staining for immune markers (CD45, CD3, CD11b, Ly6C, human CCR2). Surface staining was done for 30 minutes in ice and cells were washed twice to remove unbound antibodies. Cells were stained with 7AAD to determine viability and acquired on BD FACSVerse flow cytometer. Appropriate FMO controls and single-color controls were included in the experiment for gating and compensation respectively.
Percent depletion of CD11b+Ly6c+ Hi cells and CCR2 expression for the different treatment groups was determined.

The test system of experiment [2] is endogenous target monocytes in human PBMC. Briefly: PBMC ex vivo monocyte depletion flow cytometry assay (Example 200). Particulars: with anti-cotinine antibody SEQ ID NO: 11/12, 18-24 hours, read-out: Ex Vivo Depletion Assay pEC50 (converted). It is filed as cell-based. As for the experimental part: A human PBMC (peripheral blood mononuclear cells) monocyte depletion flow cytometry assay was developed to screen compounds in a 384-well plate format. This assay incorporated endogenous natural killer cells to deplete endogenous target monocytes.
To screen compounds in the human PBMC monocyte depletion flow cytometry assay, 11-point dose-response curves were made from 1 mM stocks in neat DMSO by serially diluting an ARM compound of Formula (I) four-fold into a 384-well plate row-wise. These serially diluted compounds were then stamped into a flat bottom polypropylene 384-well plate (Greiner Bio-One) at 100 nL/well. Fifty microliters of 30 μg/mL anti-cotinine antibody having a heavy chain sequence of SEQ ID NO: 11 and a light chain sequence of SEQ ID NO: 12 (rabbit variable region with human IgG1 Fc domain containing a DE mutation (S239D/1332E)) that had been diluted in assay medium (RPMI 1640 (Gibco) containing 10% fetal bovine serum (Gibco), 1% Glutamax (Gibco) and 1% sodium pyruvate (Corning) was added to the wells of the plate. The plate was centrifuged for 1 min at 500 rpm (revolutions per minute) and then shaken for 5 min at room temperature. The plate was incubated for 15 minutes at 37° C./5% CO2.
Frozen PBMC cells (HemaCare BioResearch) were thawed and centrifuged at 1,200 rpm for 4 minutes. The cells were diluted to a cell density of 2×10^6 cells/mL in assay medium. Fifty microliters of the diluted cells were added to the wells of the plate. The plate was centrifuged for 1 min at 500 rpm and incubated for 18-24 hours at 37° C./5% CO2.
After 18-24 hours incubation, 2 μL of 6.25 μg human FC block (BD Pharmingen) that was diluted in assay medium was added to the wells of the plate. The plate was centrifuged for 1 minute at 500 rpm and then incubated at room temperature for 15 minutes. Five microliters of 750 nM Helix NP NIR (Biolegend) that had been diluted in assay medium was added to the wells of the plate. Nine microliters of antibody cocktail containing 1/5 diluted fluorescein isothiocyanate (FITC) labeled anti-CD45 antibody (Beckman Coulter), PC7 labeled anti-CD14 antibody (Beckman Coulter) and phycoerythrin (PE) anti-CD4 antibody (Beckman Coulter) was then added to the wells of the plate. The plate was centrifuged for 1 min at 500 rpm and incubated for 30 minutes at 4-8° C. Samples from the plate were run on BD FACS Canto II flow cytometer and data was analyzed using FlowJo software.
ARMs compounds of Formula (I) of the invention were tested for the ability to deplete monocytes in the above assay in one or more experimental runs and the results are shown in Table 3 below. Potency of the compounds of the invention is reported as a pEC50 value. The pEC50 value is the negative log of the EC50 value, wherein the EC50 value is the half maximal effective concentration measured in molar (M). For compounds tested in more than one experimental run, the pEC50 value is reported as an average or as the individual values measured

Experiment [3] concerns the target human alpha1 nicotinic acetylcholine (nACh) receptor (Homo sapiens, UniProt P02708+Q07001). The experiment in a line: Nicotinic acetylcholine receptor antagonism assay, IONFlux automated patch clamp (Example 203). The format is cell-based. Particulars: for Emax at 10 µM: maximum percentage antagonism at maximum concentration tested 10 μM, read-out: Maximum Response (%); for IC50: nAChR antagonism, ACh stimulated, patch clamp. The procedure, abridged: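 Human α1 nAChR-expressing cells were preincubated with compound (top 10 μM or 100 μM), then stimulated with 10 mM ACh; peak currents were recorded by IONFlux automated patch clamp. Percent inhibition versus ACh-alone control was vehicle- and rundown-corrected, then fitted to give IC50, with maximal antagonism at the top concentration; recordings with control current <500 pA were excluded.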

The target of experiment [4] is Anti-cotinine antibody (SEQ ID NO: 11 / SEQ ID NO: 12, rabbit variable region with human IgG1 Fc domain). The experiment in a line: Binding of anti-cotinine antibody to ARM compounds by SPR, Biacore T200, 37° C. (Example 202). Particulars: pH 7.4, rabbit variable region/human IgG1 Fc antibody captured on protein A. A digest of the protocol: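 Run at 37° C. in 10 mM HEPES pH 7.4, 150 mM NaCl, 0.005% P20, 1% DMSO. Compound titrated from 200 nM (five 3-fold steps) over protein A-captured antibody, with 200/2000 s association/dissociation. 1:1 kinetic fit gave kon, koff, Kd and residence time (1/koff); pKd averaged where runs repeated.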

In experiment [5] the target is T1, CHOK1 cells engineered to overexpress human CCR2 (Homo sapiens, UniProt P41597).
T1 construct: expressed in transfected cells; host or cells: CHOK1 cells
The experiment in a line: Antibody dependent cellular cytotoxicity (ADCC) reporter assay (Example 199). The format is cell-based. The settings on record: with anti-cotinine antibody SEQ ID NO: 11/12, CHOK1-human CCR2 target cells, Jurkat FcγRIIIa NFAT-luciferase reporter cells, 12-18 hours. A digest of the protocol:
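Potency is reported as pEC50 from a nonlinear fit, averaged over runs, using luciferase signal divided by that of compound-free wells. The readout comes from NFAT-luciferase Jurkat cells expressing FcγRIIIa, mixed for 12–18 h with human CCR2-overexpressing CHOK1 cells, 1 pM–10 μM ARM compound and 0.01–200 μg/mL Fc-enhanced anti-cotinine IgG1.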

human alpha1 nicotinic acetylcholine (nACh) receptor, sequence (P02708 21-457): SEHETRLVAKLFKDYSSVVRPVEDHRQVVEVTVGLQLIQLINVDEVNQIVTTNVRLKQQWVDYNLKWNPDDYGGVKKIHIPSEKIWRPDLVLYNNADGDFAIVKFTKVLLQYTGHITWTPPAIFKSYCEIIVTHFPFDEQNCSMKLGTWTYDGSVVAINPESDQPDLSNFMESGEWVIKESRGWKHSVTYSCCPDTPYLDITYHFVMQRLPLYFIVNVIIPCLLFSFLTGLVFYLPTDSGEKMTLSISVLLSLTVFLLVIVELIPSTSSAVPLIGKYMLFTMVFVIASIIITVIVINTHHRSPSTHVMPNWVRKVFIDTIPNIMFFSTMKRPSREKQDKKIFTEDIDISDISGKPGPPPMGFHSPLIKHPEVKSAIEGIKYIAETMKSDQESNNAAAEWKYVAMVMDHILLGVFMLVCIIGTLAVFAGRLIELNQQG
human alpha1 nicotinic acetylcholine (nACh) receptor, sequence (P11230 24-501 partner): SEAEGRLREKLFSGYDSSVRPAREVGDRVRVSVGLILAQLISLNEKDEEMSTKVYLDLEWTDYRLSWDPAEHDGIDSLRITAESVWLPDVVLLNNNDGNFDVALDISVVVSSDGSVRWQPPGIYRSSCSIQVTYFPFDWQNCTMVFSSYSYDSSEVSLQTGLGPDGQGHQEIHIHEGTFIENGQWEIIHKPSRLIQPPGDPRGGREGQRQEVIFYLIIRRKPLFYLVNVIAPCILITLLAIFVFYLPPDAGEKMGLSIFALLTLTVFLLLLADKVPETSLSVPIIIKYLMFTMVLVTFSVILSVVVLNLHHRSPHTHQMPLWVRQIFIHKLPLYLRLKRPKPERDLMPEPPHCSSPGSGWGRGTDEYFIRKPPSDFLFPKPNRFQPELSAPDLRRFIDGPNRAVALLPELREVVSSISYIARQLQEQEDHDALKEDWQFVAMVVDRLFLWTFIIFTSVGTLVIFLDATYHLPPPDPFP
human alpha1 nicotinic acetylcholine (nACh) receptor, sequence (Q07001 22-517): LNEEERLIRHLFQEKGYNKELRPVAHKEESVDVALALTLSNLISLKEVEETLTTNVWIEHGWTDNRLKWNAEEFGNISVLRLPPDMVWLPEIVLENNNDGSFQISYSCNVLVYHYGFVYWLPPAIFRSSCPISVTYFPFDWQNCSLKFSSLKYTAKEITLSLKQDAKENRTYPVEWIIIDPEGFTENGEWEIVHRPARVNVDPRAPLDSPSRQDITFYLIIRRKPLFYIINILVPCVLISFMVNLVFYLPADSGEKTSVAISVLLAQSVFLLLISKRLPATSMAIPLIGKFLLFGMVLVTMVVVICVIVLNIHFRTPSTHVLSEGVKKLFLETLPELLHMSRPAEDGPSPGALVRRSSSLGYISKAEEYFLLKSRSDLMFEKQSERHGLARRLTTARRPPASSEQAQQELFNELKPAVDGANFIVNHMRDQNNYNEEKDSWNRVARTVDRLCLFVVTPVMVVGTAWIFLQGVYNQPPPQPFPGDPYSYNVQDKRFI

In the case of `CC(C)N(C)[C@@H]1CC[C@H](N2CC[C@H](Nc3ncnc4ccc(C(F)(F)F)cc34)C2=O)[C@H](NC(=O)[C@H]2CC[C@H](N3CCN(S(=O)(=O)C4CCN(C(=O)[C@H](C)NC(=O)[C@H]5CC(=O)N(C)[C@@H]5c5cccnc5)CC4)CC3)CC2)C1` [Example 70, (2S,3S)-N-((S)-1-(4-((4-((1R,4S)-4-(((1R,2S,5R)-5-(isopropyl(methyl)amino)-2-((S)-2-oxo-3-((6-(trifluoromethyl)quinazolin-4-yl)amino)pyrrolidin-1-yl)cyclohexyl)carbamoyl)cyclohexyl)piperazin-1-yl)sulfonyl)piperidin-1-yl)-1-oxopropan-2-yl)-1-methyl-5-oxo-2-(pyridin-3-yl)pyrrolidine-3-carboxamide], in experiment [1], the “% Depletion of CCR2 expressing cells” value is listed as 30.51%. Also, the EC50 in experiment [2] was 0.1 nM.
As for `CC(C)N(C)[C@@H]1CCC(N2CC[C@H](Nc3ncnc4ccc(C(F)(F)F)cc34)C2=O)[C@H](NC(=O)CCOCCOCCOCCOCCOCCOCCNC(=O)[C@H]2CC(=O)N(C)[C@@H]2c2cccnc2)C1` (some centres unmarked) [Example 41], in experiment [2], the EC50 is 2.51 nM. Further, in experiment [3], the Emax at 10 µM amounted to 20.1% and the IC50 is over 10000 nM. Further, the “pKd of Antibody for ARM Compound of Formula (I)” value (“pKd of Antibody” for short) in experiment [4] is 9.3615.
With `CC(C)N(C)[C@@H]1CC[C@H](N2CC[C@H](Nc3ncnc4ccc(C(F)(F)F)cc34)C2=O)[C@H](NC2CCN(C(=O)CCOCCOCCOCCOCCNC(=O)[C@H]3CC(=O)N(C)[C@@H]3c3cccnc3)CC2)C1` [Example 69], the “% Depletion of CCR2 expressing cells” value in experiment [1] is listed as 98.59%. For the same compound, the EC50 in experiment [2] is 1.58 nM. Moreover, the “pKd of Antibody” value in experiment [4] is given as 9.321.
With `CC(C)N(C)[C@@H]1CCC(N2CC[C@H](Nc3ncnc4ccc(C(F)(F)F)cc34)C2=O)[C@H](NC(=O)CCOCCOCCOCCOCCOCCNC(=O)[C@H]2CC(=O)N(C)[C@@H]2c2cccnc2)C1` (some centres unmarked) [Example 40], the EC50 in experiment [2] is 5.01 nM. For the same compound, in experiment [3], the Emax at 10 µM was 24.7% and the IC50 is over 10000 nM. For the same compound, the “pKd of Antibody” value in experiment [4] was 9.4525.
In the case of `CC(C)N(C)[C@@H]1CC[C@H](N2CC[C@H](Nc3ncnc4ccc(C(F)(F)F)cc34)C2=O)[C@H](NC(=O)[C@H]2CC[C@@H](N3CCN(S(=O)(=O)C4CCN(C(=O)[C@H](C)NC(=O)[C@H]5CC(=O)N(C)[C@@H]5c5cccnc5)CC4)CC3)CC2)C1` [compound 71], in experiment [1], the “% Depletion of CCR2 expressing cells” value came to 35.25%. Moreover, in experiment [2], the EC50 was 0.794 nM.
Turning to `CC(C)N(C)[C@@H]1CC[C@H](N2CC[C@H](Nc3ncnc4ccc(C(F)(F)F)cc34)C2=O)[C@H](NC(=O)C2CCN(C3CCN(C(=O)CCCCCCCNC(=O)[C@@H]4CC(=O)N(C)[C@H]4c4cccnc4)CC3)CC2)C1` [Example 154, N-((1R,2S,5R)-5-(Isopropyl(methyl)amino)-2-((S)-2-oxo-3-((6-(trifluoromethyl)quinazolin-4-yl)amino)pyrrolidin-1-yl)cyclohexyl)-1′-(8-((2R,3R)-1-methyl-5-oxo-2-(pyridin-3-yl)pyrrolidine-3-carboxamido)octanoyl)-[1,4′-bipiperidine]-4-carboxamide], the EC50 is 0.501 nM in experiment [2] and 2.51 nM in experiment [5] (read-out: ADCC Reporter Assay pEC50 (converted)).
For `CN1C(=O)C[C@H](C(=O)NCCCOCCCNC(=O)CCCC(=O)NC2CCC(C(=O)N[C@@H]3C[C@H](NC(C)(C)C)CC[C@@H]3N3CC[C@H](Nc4ncnc5ccc(C(F)(F)F)cc45)C3=O)CC2)[C@H]1c1cccnc1` (some centres unmarked) [Example 22], the EC50 in experiment [2] was 0.631 nM. Moreover, in experiment [5], the “ADCC Reporter Assay pEC50” value was 9 and 9.3. Besides, the “pKd of Antibody” value in experiment [4] stood at 9.2495.
Take `CC(C)N(C)C1CCC(N2CC[C@H](Nc3ncnc4ccc(C(F)(F)F)cc34)C2=O)[C@H](N[C@H]2CC[C@@H](C(=O)NCCOCCOCCOCCOCCNC(=O)[C@H]3CC(=O)N(C)[C@@H]3c3cccnc3)CC2)C1` (some centres unmarked) [Example 67]: the EC50 in experiment [2] was 3.98 nM.
On the same count and under the same terms, as for `CC(C)N(C)[C@@H]1CC[C@H](N2CC[C@H](Nc3ncnc4ccc(C(F)(F)F)cc34)C2=O)[C@H](NC(=O)C2CCC(N3CCC(S(=O)(=O)NCCCCCCNC(=O)[C@H]4CC(=O)N(C)[C@@H]4c4cccnc4)CC3)CC2)C1` (single isomer, unassigned) [compound 149], the figure is 0.251 nM.
As for `CC(C)N(C)[C@@H]1CCC(N2CC[C@H](Nc3ncnc4ccc(C(F)(F)F)cc34)C2=O)[C@H](NC(=O)CCOCCOCCOCCOCCNC(=O)[C@H]2CC(=O)N(C)[C@@H]2c2cccnc2)C1` (some centres unmarked) [Example 39], the EC50 in experiment [2] is 2510 nM.
